According to patent US20230128609A1, “TUMOR SUPPRESSION BY MODULATION OF NON-CANONICAL AUTOPHAGY (LAP) IN MYELOID CELLS” (St. Jude Children's Research Hospital, priority 2017, published 2023):

System: RAW cells expressing Venus-LC3
Assay: Evaluation of LAP, as assessed by LC3-II lipidation upon zymozan stimulation, by flow cytometry
Type: cell-based
Conditions: RAW cells expressing Venus-LC3 stimulated with zymozan-Alexa594 (ZYM) for 1 h, treatment started 30 min prior to stimulation, digitonin-permeabilized cells
Description: (FIG. 9D) Evaluation of LAP, as assessed by LC3-II lipidation upon stimuli. RAW cells expressing Venus-LC3 were stimulated with ZYM for 1 h, treated with digitonin and accumulation of lipidated LC3-II in permeabilized cells was measured by flow cytometry. (FIG. 9E) Quantification of FIG. 9D, in MFI. […] Flow cytometry analysis. At the indicated time points, GFP-LC3+ cells can be collected, washed once with FACS buffer, and permeabilized with digitonin (Sigma, 200 g ml-1) for 15 min on ice. Cells can be washed 3 times with FACS buffer and analysed by flow cytometry for membrane-bound GFP—LC3—II.

c1ccc2c(c1)[I+]c1ccccc1-2 [DPI, diphenyleneiodonium]
LAP activity in vitro (LC3-II lipidation upon stimuli): abrogates LAP activity

COc1cc(C(C)=O)ccc1O [apocynin]
LAP activity in vitro (LC3-II lipidation upon stimuli): abrogates LAP activity
